Source: patent publication US10426162B2, “Interaction between antimicrobial quaternary compounds and anionic surfactants” (Ecolab USA Inc., priority 2016, dated 2019)

How the values were obtained:
Staphylococcus = experiment: Antimicrobial suspension test of quat-anionic surfactant compositions (Examples 6, 8); format: cell-based, Staphylococcus aureus; details: for kill properties on Staphylococcus: 300, 150 and 75 ppm active Bardac […] + anionic surfactant, 7.5:1 mass ratio, pH 8, FIG. 8; for antimicrobial efficacy against Staphylococcus: FIG. 6A
Escherichia coli = experiment: Antimicrobial suspension test of quat-anionic surfactant compositions (Examples 6-7); format: cell-based; details: for antimicrobial efficacy against E. coli (log reduction of bacteria): 300 ppm Bardac […] + anionic surfactant, mole:mole ratio, pH 8, FIG. 7; for log reduction of bacteria for E. coli: 300 ppm active Bardac […] + anionic surfactant, 7.5/1 mass ratio, FIG. 6A
bacteria = experiment: Antimicrobial efficacy at pH 8.0, 7.5 to 1 mass ratio (FIG. 6B); format: cell-based; details: 7.5/1 mass ratio; for log reduction of bacteria: 300 ppm Bardac […] + anionic surfactant; for antimicrobial efficacy: 150 ppm Bardac […] + anionic surfactant
Description: Further examination of the antimicrobial efficacy of a quaternary ammonium compound in association with an anionic surfactant at pH 8.0 was performed as described above.

[1] = Dynamic surface tension (SITA science line t60 bubble pressure); details: for dynamic surface tension: 100 ppm Bardac […] + sulfate based anionic surfactant at mole:mole ratio, FIGS. 4A-4C
Description: The SITA science line t60 measures the dynamic surface tension of liquids up to the semi-static range. Air bubbles are generated from a capillary with known radius. The bubble pressure is measured as a function of bubble life time, which can be correlated to the surface tension according to the Young-Laplace equation.
The SITA science line t60 was calibrated with DI water. Clean water samples after calibration should have a surface tension of 72.0 ±1.0 mN/m (depending on the quality and temperature). Following calibration, the SITA was programmed to take readings at the desired time intervals (i.e., 0.3, 1.6, 3.0, 9.1 seconds). In order to determine the effects on the surface activity of a 9:1 mass ratio of quaternary ammonium compound with an anionic surfactant the following compositions were prepared.
10-15 mL were transferred into 20 mL vials and immersed in a heated oil bath to 72° C. (160° F.)±2° C. The samples were equilibrated for 10-15 minutes. The samples were individually removed from the oil bath and tested in the SITA. After each sample was tested the SITA's cleaning procedure was run, then the surface tension of DI water was checked to ensure the SITA was adequately clean. If the DI water measurements were not within 72.0±1.0 mN/m, then the cleaning procedure was run again.
The SITA science line t60 was calibrated with DI water. Clean water samples after calibration should have a surface tension of 72.0±1.0 mN/m (depending on the quality and temperature). Following calibration, the SITA was programmed to take readings at the desired time intervals (i.e., 0.3, 1.6, 3.0, 9.1 seconds). In order to determine the effects on the dynamic surface tension of Bardac LF80 and varying concentrations of Acusol 445 the following five solutions were analyzed at pH 7.0; 100 ppm Bardac LF80; 10 ppm Acusol 445; 100 ppm Bardac LF80+10 ppm Acusol 445; 100 ppm Bardac LF80+30 ppm Acusol 445; and 100 ppm Bardac LF80+75 ppm Acusol 445.

E. coli = experiment: Third sink sanitizer (Example 12); format: cell-based, Escherichia coli; details: 500 ppm water hardness, neutral pH versus pH 4.5
Description: The antimicrobial efficacy of quaternary ammonium compounds and anionic surfactants for use as a third sink sanitizer were evaluated as shown in Table 10.

[2] = 300 ppm Bardac […] + anionic surfactant, mole:mole ratio
[3] = Bardac […] + anionic sulfate surfactant at mole:mole ratio, FIG. 2
[4] = 100 ppm Bardac […] + anionic carboxylate surfactant at mole:mole ratio, FIG. 3A
[5] = 300 ppm active Bardac […] + anionic surfactant, 7.5/1 mass ratio

Compound	kill properties on Staphylococcus (Staphylococcus)	antimicrobial efficacy against E. coli (log reduction of bacteria) (Escherichia coli)	log reduction of bacteria (bacteria)	dynamic surface activity (surface tension versus bubble life time) [1, 3]	dynamic surface activity (surface tension versus bubble life time) [1, 4]	antimicrobial efficacy (bacteria)	further results
CCCCC(CC)COS(=O)(=O)[O-].[Na+] (centres unmarked) [EH-S, Sodium 2-ethyl hexyl sulfate]	excellent kill properties on Staphylococcus	reduce the antimicrobial activity of the quaternary ammonium compound	highest log reduction of bacteria	rapid increase in surface activity	–	–	antimicrobial efficacy against Staphylococcus (Staphylococcus; [2]): good antimicrobial efficacy against Staphylococcus; log reduction of bacteria for E. coli (Escherichia coli): highest log reduction of bacteria for E. coli; dynamic surface tension [1]: synergistic reduction of surface tension
CC(O)(P(=O)(O)O)P(=O)(O)O [HEDP, 1-hydroxy ethylidene-1,1-diphosphonic acid]	–	–	–	–	–	–	dynamic surface activity ([1]; 100 ppm Bardac LF80 + 10-75 ppm HEDP, pH 7.0, FIG. 18): increase in dynamic surface activity of Bardac LF80 in combination with HEDP
CCCCCCCCS(=O)(=O)[O-].[Na+] [NAS-FAL, sodium n-octanesulfonate]	–	reduce the antimicrobial activity of the quaternary ammonium compound	highest log reduction of bacteria	rapid increase in surface activity	–	–	antimicrobial efficacy against Staphylococcus (Staphylococcus; [2]): good antimicrobial efficacy against Staphylococcus; dynamic surface tension [1]: synergistic trend in regards to reduced surface tension
CCCCCCCC/C=C\CCCCCCCC(=O)O [Oleic acid]	–	–	–	–	capable of increasing the surface activity, to variable extents, compared to Bardac 205M alone	–	–
CCCCCCCCCCCCOS(=O)(=O)[O-].[Na+] [SLS, sodium lauryl sulfate]	–	reduce the antimicrobial activity of the quaternary ammonium compound	highest log reduction of bacteria	overall increase in surface activity compared to Bardac 205M alone, but displayed slower dynamics	–	–	antimicrobial efficacy against Staphylococcus (Staphylococcus; [5]): good antimicrobial efficacy against Staphylococcus; log reduction of bacteria for E. coli (Escherichia coli): highest log reduction of bacteria for E. coli; dynamic surface tension [1]: reduced dynamic surface tension, as compared to either the quaternary ammonium compound or the anionic surfactant alone
CC(C(=O)[O-])N(CC(=O)[O-])CC(=O)[O-].[Na+].[Na+].[Na+] (centres unmarked) [Trilon M, methyl glycine diacetic acid (MGDA)]	–	–	–	–	–	–	dynamic surface activity, effect of pH ([1]; 100 ppm Bardac LF80 + 100 ppm Trilon M at pH 3.0, 9.0, 11.0, FIG. 21): independent of pH
CCCCCCCCCC(=O)O [decanoic acid]	excellent kill properties on Staphylococcus	reduce the antimicrobial activity of the quaternary ammonium compound	highest log reduction of bacteria	–	–	good antimicrobial efficacy	effect on the antimicrobial efficacy of the quat (E. coli): “synergizes” the quat; effect on the antimicrobial efficacy of the quat (E. coli; listed as decanoate): “deactivates” quat; dynamic surface tension, effect of pH ([1]; 100 ppm Bardac […] + 56 ppm decanoic acid mole:mole, pH 3.6-10.2, FIG. 5B): independent of pH; dynamic surface activity (surface tension versus bubble life time) ([1]; 100 ppm Bardac […] alone, 100 ppm Decanoate alone, or 100 ppm Bardac […] + 10-70 ppm Decanoic acid, FIG. 3B): limited surface activity
CCCCC(CC)C(=O)O (centres unmarked) [ethylhexoic acid]	excellent kill properties on Staphylococcus	highest log reduction of bacteria	highest log reduction of bacteria	–	capable of increasing the surface activity, to variable extents, compared to Bardac 205M alone	good antimicrobial efficacy	–
CCCCCCCCCCCC(=O)O [lauric acid]	–	–	–	–	capable of increasing the surface activity, to variable extents, compared to Bardac 205M alone	–	–
CCCCCCCC(=O)O [octanoic acid]	excellent kill properties on Staphylococcus	highest log reduction of bacteria	highest log reduction of bacteria	–	capable of increasing the surface activity, to variable extents, compared to Bardac 205M alone	good antimicrobial efficacy	–
sodium lauryl ether sulfate [SLES]	–	reduce the antimicrobial activity of the quaternary ammonium compound	highest log reduction of bacteria	overall increase in surface activity compared to Bardac 205M alone, but displayed slower dynamics	–	good antimicrobial efficacy	antimicrobial efficacy against Staphylococcus (Staphylococcus; [5]): good antimicrobial efficacy against Staphylococcus; log reduction of bacteria for E. coli (Escherichia coli): highest log reduction of bacteria for E. coli; dynamic surface activity (surface tension versus bubble life time) ([1]; 100 ppm Bardac […] + surfactant at 9:1 mass ratio, 160° F., FIG. 1): do not display the synergistic boost in surface activity
